Reference: publication PMC11676910, “Manganese(II) Complexes with Non-Steroidal Anti-Inflammatory Drugs: Structure and Biological Activity” (International Journal of Molecular Sciences, 2024)
Read-outs that look alike come from different tables or passages of the source.

Assays:
EB–DNA adduct (CT DNA) [1] = assay: EB displacement from EB–DNA adduct by fluorescence emission spectroscopy; format: binding, calf; settings: for Stern–Volmer constant KSV (EB–DNA) / EB–DNA fluorescence quenching ΔI/Io (%): [EB] = 40 μM, [DNA] = 45 μM; for EB–DNA fluorescence quenching ΔI/Io (%): λexcitation 540 nm; for relative EB–DNA fluorescence intensity (I/Io, %) remaining: λemission = 592 nm, lowest value reached, % of the initial EB–DNA fluorescence; for quenching constant kq of the EB–DNA fluorescence: τo = 23 ns
[2] = Solubility of the complexes; format: physicochemical
[3] = biological target: human serum albumin (HSA) (Homo sapiens, UniProt P02768); settings: for HSA binding constant Κ(HSA): Scatchard equation, HSA 3 μM; for relative HSA fluorescence emission intensity (I/Io %) remaining: λem,max = 340 nm, lowest value reached, % of the initial HSA fluorescence
human serum albumin (HSA), sequence (P02768 25-609): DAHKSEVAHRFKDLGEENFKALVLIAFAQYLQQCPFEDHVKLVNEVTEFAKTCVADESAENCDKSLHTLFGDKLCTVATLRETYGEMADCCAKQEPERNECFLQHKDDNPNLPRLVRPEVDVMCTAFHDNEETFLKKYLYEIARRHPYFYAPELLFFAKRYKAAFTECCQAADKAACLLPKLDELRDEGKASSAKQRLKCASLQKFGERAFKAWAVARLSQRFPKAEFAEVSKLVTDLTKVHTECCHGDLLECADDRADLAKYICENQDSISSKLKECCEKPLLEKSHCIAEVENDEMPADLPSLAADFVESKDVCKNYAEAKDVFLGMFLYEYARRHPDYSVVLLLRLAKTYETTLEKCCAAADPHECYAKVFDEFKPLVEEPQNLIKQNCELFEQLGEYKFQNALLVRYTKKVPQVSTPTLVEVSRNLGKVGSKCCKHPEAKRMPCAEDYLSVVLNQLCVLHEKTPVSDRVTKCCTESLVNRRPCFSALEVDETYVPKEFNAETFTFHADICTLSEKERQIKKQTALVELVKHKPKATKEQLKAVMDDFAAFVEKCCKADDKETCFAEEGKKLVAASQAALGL

[4] = ABTS radical scavenging assay; settings: compound 0.1 mM in DMSO; absorbance at 734 nm 1 min after mixing
CT DNA [5] = assay: CT DNA binding by UV-vis spectroscopy titration; parameters: species or system calf; settings: for ΔA/A0 (%) hyper-/hypo-chromism of UV band / Δλ (nm) shift of λmax: on addition of CT DNA
[6] = biological target: bovine serum albumin (BSA) (Bos taurus, UniProt P02769); assay: BSA tryptophan fluorescence quenching; settings: for BSA binding constant Κ(BSA): Scatchard equation, BSA 3 μM; for relative BSA fluorescence emission intensity (I/Io, %) remaining: λem,max = 345 nm, lowest value reached, % of the initial BSA fluorescence
bovine serum albumin (BSA), sequence (P02769 25-607): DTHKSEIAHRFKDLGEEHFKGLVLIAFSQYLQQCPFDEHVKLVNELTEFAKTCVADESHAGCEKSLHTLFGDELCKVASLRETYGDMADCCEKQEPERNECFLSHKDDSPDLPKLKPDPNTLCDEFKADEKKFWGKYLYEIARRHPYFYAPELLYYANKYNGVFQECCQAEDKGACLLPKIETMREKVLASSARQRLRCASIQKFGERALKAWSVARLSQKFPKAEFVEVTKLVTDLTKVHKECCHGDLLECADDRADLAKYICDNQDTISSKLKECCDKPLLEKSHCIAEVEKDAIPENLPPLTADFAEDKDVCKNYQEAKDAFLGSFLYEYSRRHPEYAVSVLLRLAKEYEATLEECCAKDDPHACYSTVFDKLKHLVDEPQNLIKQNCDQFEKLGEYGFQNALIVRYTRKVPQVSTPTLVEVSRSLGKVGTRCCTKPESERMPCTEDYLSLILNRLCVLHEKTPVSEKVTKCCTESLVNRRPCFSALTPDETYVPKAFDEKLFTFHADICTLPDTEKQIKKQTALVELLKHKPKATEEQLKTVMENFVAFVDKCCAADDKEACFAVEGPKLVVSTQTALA

[7] = parameters: concentration or dose not given beside the values; settings: free NSAID; cited from earlier work
EB–DNA adduct (CT DNA) [8] = settings: cited from earlier work
CT DNA [9] = settings: cited from earlier work; for ΔA/A0 (%) hyper-/hypo-chromism of UV band: first band listed in the cell
[10] = first band listed in the cell, + hyperchromism, − hypochromism
[11] = first band listed in the cell, + red shift, − blue shift
[12] = second band listed in the cell, <−50 = intense hypochromism
[13] = second band listed in the cell, elim = elimination

| Compound | Stern–Volmer constant KSV (EB–DNA) (EB–DNA adduct (CT DNA) [1]) | EB–DNA fluorescence quenching ΔI/Io (%) (EB–DNA adduct (CT DNA) [1]) | relative EB–DNA fluorescence intensity (I/Io, %) remaining (EB–DNA adduct (CT DNA) [1]) [%] | quenching constant kq of the EB–DNA fluorescence (EB–DNA adduct (CT DNA) [1]) | solubility [2] | HSA binding constant Κ(HSA) [3] | relative HSA fluorescence emission intensity (I/Io %) remaining [3] [%] | % ABTS radical scavenging activity (ABTS%) [4] [%] | ΔA/A0 (%) hyper-/hypo-chromism of UV band (CT DNA [5]; [10]) | Δλ (nm) shift of λmax (CT DNA [5]; [11]) | BSA binding constant Κ(BSA) [6] | relative BSA fluorescence emission intensity (I/Io, %) remaining [6] [%] | ΔA/A0 (%) hyper-/hypo-chromism of UV band (CT DNA [5]; [12]) | BSA quenching constant kq(BSA) [6] | Δλ (nm) shift of λmax (CT DNA [5]; [13]) | also measured |
| --- | --- | --- | --- | --- | --- | --- | --- | --- | --- | --- | --- | --- | --- | --- | --- | --- |
| Cc1ccc(Cl)c(Nc2ccccc2C(=O)[O-])c1Cl.Cc1ccc(Cl)c(Nc2ccccc2C(=O)[O-])c1Cl.O.O.[Mn+2].c1ccncc1.c1ccncc1.c1ccncc1.c1ccncc1 [Complex 1, [Μn(meclf–O)2(py)2(H2O)2]∙2py] | 1.15 (±0.17) × 10^5 M^–1 | 53.0 | 47.0 | 4.99 (±0.15) × 10^12 M^–1s^–1 | soluble in DMSO and DMF | 8.83 (±0.24) × 10^5 M^–1 | 21.8 | 39.18 ± 3.27 | +10% | −2 nm | 9.58 (±0.07) × 10^5 M^–1 | 11.8 | – | – | – | – |
| CO.CO.Cc1ccc(Cl)c(Nc2ccccc2C(=O)[O-])c1Cl.Cc1ccc(Cl)c(Nc2ccccc2C(=O)[O-])c1Cl.[Mn+2].c1cnc2c(c1)ccc1cccnc12 [Complex 3, [Μn(meclf–O)2(phen)(MeOH)2]] | 1.18 (±0.32) × 10^6 M^–1 | 79.6 | 20.4 | 5.15 (±0.14) × 10^13 M^–1s^–1 | soluble in DMSO, and DMF | 8.73 (±0.06) × 10^5 M^–1 | 17.0 | 18.66 ± 0.71 | −6% | +2 nm | 2.71 (±0.16) × 10^6 M^–1 | 8.0 | – | – | – | – |
| CO.CO.Cc1ccc(Cl)c(Nc2ccccc2C(=O)[O-])c1Cl.Cc1ccc(Cl)c(Nc2ccccc2C(=O)[O-])c1Cl.[Mn+2].c1ccc(-c2ccccn2)nc1 [Complex 4, [Mn(meclf–O)2(bipy)(MeOH)2]] | 1.54 (±0.31) × 10^5 M^–1 | 44.8 | – | 6.69 (±0.13) × 10^12 M^–1s^–1 | – | 9.38 (±0.29) × 10^5 M^–1 | – | 98.69 ± 0.06 | +15% | – | 9.61 (±0.06) × 10^5 M^–1 | – | +9% | 1.76 (±0.11) × 10^14 M^–1s^–1 | – | – |
| Cc1ccc2ccc3ccc(C)nc3c2n1.O=C([O-])c1ccccc1Nc1cccc(C(F)(F)F)c1.O=C([O-])c1ccccc1Nc1cccc(C(F)(F)F)c1.[Mn+2] [Complex 7, [Μn(fluf–O,O’)2(neoc)]] | 5.55(±0.12) × 10^5 M^–1 | 52.1 | 47.9 | 2.41 (±0.05) × 10^13 M^–1s^–1 | soluble in DMSO | 8.33 (±0.04) × 10^5 M^–1 | 14.4 | 29.70 ± 2.86 | −6% | 0 nm | 4.69 (±0.37) × 10^5 M^–1 | 10.8 | – | 4.62 (±0.11) × 10^13 M^–1s^–1 | – | DNA binding constant Kb (CT DNA [5]; Wolfe–Shimer equation, buffer 150 mM NaCl, 15 mM trisodium citrate pH 7.0): 1.10 (±0.02) × 10^6 M^–1 |
| Cc1c(Cl)cccc1Nc1ccccc1C(=O)[O-].Cc1c(Cl)cccc1Nc1ccccc1C(=O)[O-].Cc1ccc2ccc3ccc(C)nc3c2n1.[Mn+2] [Complex 8, [Μn(tolf–O,O’)2(neoc)]] | 2.35 (±0.48) × 10^5 M^–1 | 50.0 | 50.0 | 1.02 (±0.03) × 10^13 M^–1s^–1 | soluble in DMSO | 6.35 (±0.29) × 10^5 M^–1 | 7.4 | 99.63 ± 0.07 | +5% | +1 nm | 7.23 (±0.23) × 10^5 M^–1 | 4.4 | +2% | 1.36 (±0.53) × 10^14 M^–1s^–1 | +2 nm | – |
| O=C(O)c1cc(-c2ccc(F)cc2F)ccc1O [Complex H2difl, diflunisal] | – | – | – | – | – | – | – | – | – | – | – | – | – | – | – | % ABTS radical scavenging activity (ABTS%) [7]: 76.58 ± 0.74%; EB–DNA fluorescence quenching ΔI/Io (%) (EB–DNA adduct (CT DNA) [8]): 65.0%; Stern–Volmer constant KSV (EB–DNA) (EB–DNA adduct (CT DNA) [8]): 8.59 (±0.35) × 10^5 M^–1; quenching constant kq of the EB–DNA fluorescence (EB–DNA adduct (CT DNA) [8]): 3.73 (±0.15) × 10^13 M^–1s^–1; ΔA/A0 (%) hyper-/hypo-chromism of UV band (CT DNA [9]): +15% |
| CC[n+]1c(-c2ccccc2)c2cc(N)ccc2c2ccc(N)cc21.[Br-] [EB, 3,8–diamino–5–ethyl–6–phenyl–phenanthridinium bromide] | – | – | – | – | – | – | – | – | – | – | – | – | – | – | – | DNA binding constant Kb (CT DNA [9]; classic intercalator): 1.23 (±0.07) × 10^5 M^−1 |
| O=C(O)Cc1ccccc1Nc1c(Cl)cccc1Cl [Na dicl, sodium diclofenac] | – | – | – | – | – | – | – | – | – | – | – | – | – | – | – | % ABTS radical scavenging activity (ABTS%) [7]: 76.35 ± 0.75%; EB–DNA fluorescence quenching ΔI/Io (%) (EB–DNA adduct (CT DNA) [8]): 65.0%; Stern–Volmer constant KSV (EB–DNA) (EB–DNA adduct (CT DNA) [8]): 2.47 (±0.06) × 10^5 M^–1; quenching constant kq of the EB–DNA fluorescence (EB–DNA adduct (CT DNA) [8]): 1.07 (±0.03) × 10^13 M^–1s^–1; ΔA/A0 (%) hyper-/hypo-chromism of UV band (CT DNA [9]): −7.5% |
| Cc1c(C)c2c(c(C)c1O)CCC(C)(C(=O)O)O2 (stereo not shown) [Trolox, 6–Hydroxy–2,5,7,8–tetramethylchromane–2–carboxylic acid, reference compound] | – | – | – | – | – | – | – | 91.8 ± 0.17 | – | – | – | – | – | – | – | – |
| [Μn(Hdifl–O,O’)(Hdifl–O)(neoc)]·0.5MeOH [Complex 9] | 1.01 (±0.42) × 10^6 M^–1 | – | 29.4 | 4.39 (±0.10) × 10^13 M^–1s^–1 | soluble in DMSO | 5.44 (±0.24) × 10^5 M^–1 | 24.9 | 25.80 ± 1.43 | +6% | 0 nm | 5.67 (±0.27) × 10^5 M^–1 | 24.8 | – | 2.99 (±0.16) × 10^13 M^–1s^–1 | – | – |
| [Μn(dicl–O,O’)2(neoc)]∙0.25 H2O [Complex 5] | 7.37 (±0.05) × 10^5 M^–1 | 69.9 | 30.1 | 3.20 (±0.21) × 10^13 M^–1s^–1 | soluble in DMSO | 3.09 (±0.21) × 10^5 M^–1 | 0.8 | 99.20 ± 0.06 | +8% | +2 nm | 6.32 (±0.32) × 10^5 M^–1 | 12.7 | +7% | 3.46 (±0.16) × 10^13 M^–1s^–1 | −4 nm | – |
| [Μn(mef–O)2(py)2(H2O)(MeOH)]∙1.5py [Complex 2] | 2.30 (±0.53) × 10^5 M^–1 | – | 47.4 | 1.00 (±0.155) × 10^13 M^–1s^–1 | soluble in DMSO and DMF | 1.92 (±0.10) × 10^6 M^–1 | 0.3 | 92.56 ± 0.74 | +7% | 0 nm | 1.03 (±0.16) × 10^6 M^–1 | 9.7 | < −50% | – | elim | overall quenching of albumin fluorescence ([3]; % of the fluorescence intensity initially measured for albumin (HSA per Figure 11C)): 99.7% |
| [Μn(mef–O,O’)2(neoc)]∙1.5MeOH∙0.25 H2O [Complex 6] | 4.29 (±0.32) × 10^5 M^–1 | 60.6 | 39.4 | 1.86 (±0.18) × 10^13 M^–1s^–1 | soluble in DMSO | 9.48 (±0.35) × 10^5 M^–1 | 5.6 | 98.69 ± 0.07 | +3% | 0 nm | 1.08 (±0.38) × 10^6 M^–1 | 5.9 | +2% | 1.87 (±0.04) × 10^14 M^–1s^–1 | −2 nm | – |
